Measured values as given in patent US20070015827A1, “Methods and compositions for treating ophthalmic conditions via serum retinol, serum retinol binding protein (RBP), and/or serum retinol-RBP modulation” (Sytera, Inc., priority 2005, published 2007).
Entries after “also recorded” stand apart in the source; their conditions may differ.

Experiments:
[1] = system: abca4 null mutant mice; assay: Serum retinol after 28 days of daily HPR (LC/MS, HPLC); type: in vivo, mouse; details: for effect on serum retinol (in words): ABCA4 null mice
Procedure: ABCA4 null mutant mice were given the indicated dose of HPR in DMSO (i.p.) daily for 28 days (n=4 mice per dosage group). At the end of the study period, blood samples were taken and serum was prepared. Following acetonitrile precipitation of serum proteins, the concentrations of retinol and HPR were determined from the soluble phase by LC/MS (see FIG. 7). Identity of the eluted compounds was confirmed by UV-vis absorption spectroscopy and co-elution of sample peaks with authentic standards.
Analysis of Serum Retinol. Whole blood was collected from tail veins of HPR-treated mice 18 hrs. following the final HPR dose (i.e., at day 28). Serum was obtained from whole blood following centrifugation at 1,500×g, 10 min. Serum proteins were precipitated with the addition of an equivolume of ice-cold acetonitrile and centrifugation (10,000×g, 10 min). An aliquot was removed from the soluble phase and analyzed by HPLC using an Agilent 1100 series capillary liquid chromatograph equipped with a diode-array detector. Chromatography was performed on a Zorbax SB C18 5 μm column (150×0.5 mm) equilibrated with acetonitrile/water/glacial acetic acid (80:18:2, v/v) at a flow rate of 10 μl/min.

[2] = system: abca4 −/− mice; assay: A2E levels after withdrawal of chronic treatment; type: in vivo, mouse; details: chronic treatment (HPR 10 mg/kg i.p.) stopped after 28 days; measured 12, 28 and 42 days later
Procedure: Latent Effects of HPR on Arresting A2E Accumulation —One feature identified during the HPR trials was a therapeutic latency effect following withdrawal of HPR. In these studies, chronic treatment of abca4 −/− mice (10 mg HPR/kg, i.p.) was stopped after 28 days. A2E levels were then measured 12, 28 and 42 days following the final HPR dose. […] This effect was not observed in animals treated with 13-cis retinoic acid, a result that may be due to the capacity of RPE cells to adapt to, and maintain, low steady-state retinoid levels. […] These findings indicate that high steady-state levels of competitive inhibitors such as 13-cis retinoic acid must be maintained for therapeutic efficacy.

[3] = in vivo; cited from earlier work
[4] = system: abcr null mutant mice; assay: Lipofuscin autofluorescence in RPE and light microscopy of retina; type: in vivo, mouse
[5] = cited from earlier work
[6] = system: abca4 null mutant mice; assay: A2E and A2PE-H2 in eyes after chronic treatment (HPLC); type: in vivo, mouse
Procedure: Tissue Extraction. Eye samples were thawed on ice in 1 ml of PBS, pH 7.2 and homogenized by hand using a Duall glass-glass homogenizer. The sample was further homogenized following the addition of 1 ml chlorofomm/methanol (2:1, v/v). The sample was transferred to a boroscilicate tube and lipids were extracted into 4 mls of chloroform. The organic extract was washed with 3 mls PBS, pH 7.2 and the samples were then centrifuged at 3,000×g, 10 min. The choloroform phase was decanted and the aqueous phase was re-extracted with another 4 mls of chloroform. Following centrifugation, the chloroform phases were combined and the samples were taken to dryness under nitrogen gas. Samples residues were resuspended in 100 μl hexane and analyzed by HPLC as described below.
HPLC Analysis. Chromatographic separations were achieved on an Agilent Zorbax Rx-Sil Column (5 μm, 4.6×250 mm) using an Agilent 1100 series liquid chromatograph equipped with fluorescence and diode array detectors. The mobile phase (hexane/2-propanol/ethanol/25 mM KH2PO4, pH 7.0/acetic acid; 485/376/100/50/0.275, v/v) was delivered at 1 ml/min. Sample peak identification was made by comparison to retention time and absorbance spectra of authentic standards. Data are reported as peak fluorescence (L.U.) obtained from the fluorescence detector.
We initiated a one-month study to evaluate the effects of HPR on reduction of A2E and A2E precursors in abca4 null mutant mice. HPR was administered in DMSO (20 mg/kg, ip) to abca4 null mutant mice (BL6/129, aged 2 months) daily for a period of 28 days. Control age/strain matched mice received only the DMSO vehicle. Mice were sampled at 0, 14, and 28 days (n=3 per group), the eyes were enucleated and chloroform-soluble constituents (lipids, retinoids and lipid-retinoid conjugates) were extracted. Mice were sacrificed by cervical dislocation, the eyes were enucleated and individually snap frozen in cryo vials. The sample extracts were then analyzed by HPLC with on-line fluorescence detection. Results from this study show remarkable, early reductions in the A2E precursor, A2PE-H2, see FIG. 4a, and subsequent reductions in A2E, see FIG. 4b. […] A similar study may be undertaken to ascertain effects of HPR treatment on the electroretinographic and morphological phenotypes.
ABCA4 null mutant mice were given the indicated dose of HPR in DMSO or DMSO alone daily for 28 days (n=16 mice per treatment group). At study onset, mice in the 2.5 mg/kg group were 2 months of age, mice in the other treatment groups were 3 months of age. At the indicated times, representative mice were taken from each group (n =4) for analysis of A2E precursor compounds (see FIG. 10, A2PE-H2, panels A, C and E) and A2E (see FIG. 10, panels B, D and F). Eyes were enucleated, hemisected and lipid soluble components were extracted from the posterior pole by chloroform/methanol-water phase partitioning. Sample extracts were analyzed by LC. Identity of the eluted compounds was confirmed by UV-vis absorption spectroscopy and co-elution of sample peaks with authentic standards. Note: limitations in appropriately age and strain-matched mice in the 10 mg/kg group prevented analysis at the 14-day interval.
Extraction and Analysis of Retinoids and A2E. Steady-state levels of retinoids and A2E in eyecups of ABCA4−/− mice were determined following daily administration (28 days) of HPR (FIG. 12). Mice were sacrificed, the eyes enucleated, and the posterior portion of each eye was used for extraction of retinoids or A2E. Methodologies used for extraction of retinoids and A2E from eye tissue and HPLC analysis techniques have been described. See, e.g., Mata N L, Weng J, Travis G H. Biosynthesis of a major lipofuscin fluorophore in mice and humans with ABCR-mediated retinal and macular degeneration. Proc Natl Acad Sci USA. 2000; 97:7154-7159; Weng J, et al.; Cell. 1999;98:13-23; Mata N L, et al.; Invest. Ophthalmol. Visual Sci. 2001; 42:1685-1690. […]

## CC1=C(/C=C/C(C)=C/C=C/C(C)=C/C(=O)Nc2ccc(O)cc2)C(C)(C)CCC1 [HPR, N-(4-hydroxyphenyl)retinamide]
[1]
  effect on serum retinol (in words): profound reductions
[1]; listed as Fenretinide
  effect on serum retinol (in words): potently and reversibly reduces
[1]; listed as fenretinide
  effect on serum retinol (in words): lowered serum retinol levels
[1]; HPR 2.5 mg/kg daily, 28 days
  serum retinol reduction: 20%
[1]; HPR 10 mg/kg daily, 28 days
  reduction of RBP-retinol in the circulation: ~50%
[2]
  A2E levels after withdrawal (therapeutic latency effect): remained persistently low for several weeks
[3]
  effect on serum retinol and RBP: reductions in serum retinol and RBP; also recorded: profound reductions
[4]; HPR daily for 28 days
  lipofuscin autofluorescence in the RPE: significantly reduces; also recorded: less than that of an age-matched wild-type animal
[4]; HPR-treated animals
  retinal morphology (light microscopy): no aberrant morphology
[5]; 4800 mg/m^2 dose, three times daily
  observed toxicities: minimal
[5]; human, in vivo
  plasma concentration after high fat meals versus carbohydrate meals: three times greater
[6]; HPR 2.5 mg/kg daily, 28 days, 2-month old mice
  reduction in A2PE-H2: ~47%
[6]; HPR 10 mg/kg daily, 28 days
  less A2E accumulated compared to DMSO littermates: ~50%
[6]; HPR 20 mg/kg ip daily, 28 days
  reduction of A2E: 55%
  reduction of A2PE-H2: 70%
[6]; mouse, in vivo
  accumulation of A2E and lipofuscin autofluorescence in the RPE (in words): arrested accumulation
